For one assay, the system named is E. cloacae F230. As to the kind of experiment: E-test MIC of antibiotics on Mueller-Hinton agar with or without NAB7061 (4 μg/ml); sensitization factor = MIC ratio absence/presence. The format is cell-based, Enterobacter cloacae. On the procedure: (§1) MICs were determined by using E-strips (Biodisk Ltd., Solna, Sweden) according to the manufacturer's instructions.
(§2) The strains originated from ATCC (11 strains), CCUG (11 strains), and NCTC (The National Collection of Type Cultures, Colindale, U.K.; 2 strains). Eight strains (the F-strains) were purchased from Mobidiag Ltd., Helsinki, Finland. The source of E. coli IH3080 has been given in Example 2. Sensitization factor was defined as in Example 7.

Another assay has as its system K. pneumoniae F136. Described as above. The format is cell-based, Klebsiella pneumoniae. How it is done: as §1, §2
The next assay deals with K. pneumoniae F145. The assay is described as above. In kind it is cell-based, Klebsiella pneumoniae. On the procedure:
as §1, §2

Another assay concerns K. pneumoniae CCUG45421. The description is as above. In kind it is cell-based, Klebsiella pneumoniae. The settings on record: NAB 7061 4 μg/ml. On the procedure:
as §1, §2

The next assay concerns K. pneumoniae F144. The assay is described as above. The format is cell-based, Klebsiella pneumoniae. On the procedure: as §1, §2
Assay [1] concerns E. coli IH3080 (K1:O18). Kind of assay: Well diffusion growth inhibition on LB agar plates (direct antibacterial activity). The format is cell-based, Escherichia coli. In outline:
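Growth inhibition of encapsulated E. coli IH3080 (K1:O18) was measured by well diffusion on LB agar plates. A suspension of about 10^8 cells/ml in 0.9% NaCl, made from an overnight LB agar culture, was spread over the plates and the excess removed. Once dry, five 2 mm wells were drilled per plate and test solutions added, with 0.9% NaCl as control. After 18 h at 37° C, inhibition zone diameters were measured and converted to surface areas in square mm.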

For assay [2], the system named is E. coli IH3080 (K1:O18). As to the kind of experiment: Experimental E. coli peritonitis model in mice. In kind it is in vivo. The settings on record: 4.5 h postinfection ([…] after the treatment), 5 mg/kg subcutaneous. How it is done: A suspension of E. coli IH3080 (K1:O18) in saline (0.9% NaCl) was prepared from an overnight culture on a blood agar plate (Statens Serum Institut, Copenhagen, Denmark). All mice (female NMR1 from Harlan Scandinavia, Allerød, Denmark; weight, 25-30 g) were inoculated intraperitoneally with 0.5 ml of the suspension containing 0.96×10^6 CFU per ml in the lateral lower quadrant of the abdomen. At 1 h, the CFU count was determined from three mice and the remaining mice (four mice per group) were treated with a subcutaneous injection of 0.2 ml of erythromycin solution in saline (corresponding to 5 mg/kg body weight) or NAB7061 solution in saline (corresponding to 5 mg/kg body weight), or both erythromycin and NAB7061 (corresponding to 5 mg/kg body weight of both drugs; given at two separate sites). Control group received two 0.2 ml injections of saline. At 4.5 h postinfection, all mice were anaesthetized with CO2 and sacrificed. Sterile saline (2 ml) was injected intraperitoneally and the abdomen was gently massaged before it was opened and the fluid sampled. Appropriate dilutions of the fluid were plated on blood agar plates, the plates were incubated overnight, and the colonies were counted.

Another assay deals with S. marcescens ATCC8100. As to the kind of experiment: E-test MIC of antibiotics on Mueller-Hinton agar with or without NAB7061 (4 μg/ml); sensitization factor = MIC ratio absence/presence. The format is cell-based, Serratia marcescens. On the procedure:
as §1, §2

Bridge positions count the residues as written; N and C are the ends. Square brackets hold non-standard residues; d marks the D form. Peptide text beside a SMILES is read from it. * marks the point of attachment. Octanoyl = CCCCCCCC(=O)*; Dab = NCC[C@H](N)C(=O)O; Abu = CC[C@H](N)C(=O)O

Consider `CCCCCCCC(=O)N[C@H](C(=O)N[C@@H](CC)C(=O)N[C@H]1CCNC(=O)[C@H]([C@@H](C)O)NC(=O)[C@H](CCN)NC(=O)[C@H](CCN)NC(=O)[C@H](CC(C)C)NC(=O)[C@@H](Cc2ccccc2)NC(=O)[C@H](CCN)NC1=O)[C@@H](C)O` [NAB 7061, OA-Thr-Abu-cy[Dab-Dab-DPhe-Leu-Dab-Dab-Thr-]] (Octanoyl-T[Abu][Dab][Dab][dF]L[Dab][Dab]T; lactam 3-C), for which the “MIC of clarithromycin in the presence of 4 μg/ml of NAB 7061” value in the assay on E. cloacae F230 is 0.047 µg/mL; in the assay with K. pneumoniae F136, 2 µg/mL; in the assay on K. pneumoniae F145 it was 0.25 µg/mL. Besides, the “MIC of rifampin in the presence of 4 μg/ml of NAB 7061” value in the assay on E. cloacae F230 was 0.016 to 0.032 µg/mL; with K. pneumoniae F136 it was 0.75 µg/mL; in the assay on K. pneumoniae F145, 0.19 to 0.25 µg/mL; in the assay with K. pneumoniae F144 it was 0.19 µg/mL; with S. marcescens ATCC8100, 16 µg/mL. For the same compound, the “Sensitization factor to rifampin” value is listed as 10-20 in the assay with K. pneumoniae CCUG45421 and more than 170 in the assay on K. pneumoniae F144 (NAB 7061 4 μg/ml). The figures for the “Antibacterial activity (growth inhibition area around a well)” value with E. coli IH3080 (K1:O18) [1] (4 μg of compound per well) and with E. coli IH3080 (K1:O18) [1] (10 μg of compound per well) were 0 square millimeters and 50 square millimeters, respectively. Moreover, in the assay on E. coli IH3080 (K1:O18) [2], the “CFU counts in peritoneal fluid” value is 1.1 (±0.6)×10^6 per ml.
